“And” between values parts separate entries of the source, which are not always exact repeats. Equal entries are not always repeated.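 Results reflect a 48-hour exposure of cells in 96-well plates to compound at five concentrations. GI50 is the concentration that inhibits growth by half. The concentration for full growth arrest is given as TGI.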

Some test systems named below: HCC-2998 colon; HL-60(TB) leukemia; HS 578T breast; KM12 colon; MDA-MB-435; NCI-H23 lung; OVCAR-5 ovarian; RPMI-8226 leukemia; RXF 393 renal; SK-MEL-2 melanoma.
Holding throughout (experiment): NCI anticancer screen, dose series, 48 h

For `COc1cccc(-c2cc(-c3cccc(NS(C)(=O)=O)c3)nc(N)c2C#N)c1O`, the GI50 in the assay with HCC-2998 colon is 0.328 µM; in the assay on HL-60(TB) leukemia, 0.0861 µM; with HS 578T breast, 0.0901 µM; in the assay with KM12 colon, 0.107 µM; in the assay with MDA-MB-435, 0.0275 µM; in the assay with NCI-H23 lung it was 0.341 µM. The GI50 was 1.08 µM in the assay on OVCAR-5 ovarian, 0.268 µM in the assay with RPMI-8226 leukemia, 0.104 µM in the assay on RXF 393 renal and 0.132 µM in the assay with SK-MEL-2 melanoma. Further, the TGI is greater than 27.1 µM in the assay on HCC-2998 colon; 2.77 µM in the assay with HL-60(TB) leukemia; 4.42 µM in the assay on HS 578T breast; greater than 100 µM in the assay on KM12 colon; 0.151 µM in the assay with MDA-MB-435; greater than 100 µM with NCI-H23 lung. For the same molecule, the TGI in the assay with OVCAR-5 ovarian is greater than 100 µM; in the assay on RPMI-8226 leukemia it was 11.8 µM; with RXF 393 renal, 1.39 µM; with SK-MEL-2 melanoma, greater than 100 µM.

`O=C(Nc1ccccc1)c1c(O)[nH]c(=S)[nH]c1=O`: the GI50 with HCC-2998 colon was 95.3 µM; in the assay with HL-60(TB) leukemia, 80.4 µM; in the assay with KM12 colon, 69.9 µM; in the assay on NCI-H23 lung, 83.6 µM; in the assay with OVCAR-5 ovarian, 89.6 µM; with SK-MEL-2 melanoma, 61.6 µM. Also, the TGI in the assay with HCC-2998 colon was 120 µM and > 250 µM; with HL-60(TB) leukemia, 67.3 µM and > 250 µM; in the assay on HS 578T breast, 74.3 µM; in the assay on KM12 colon, 111 µM and > 250 µM; in the assay with MDA-MB-435, 46.8 µM; with NCI-H23 lung it was 82.6 µM and > 250 µM. Further, the TGI in the assay on OVCAR-5 ovarian was 110 µM and > 250 µM; with RPMI-8226 leukemia, 79 µM and > 25 µM; in the assay with RXF 393 renal, 96.3 µM and 68.9 µM; in the assay with SK-MEL-2 melanoma, 101 µM and 179 µM.

Take `Cc1cc(-c2nc(C(=O)Nc3cc4oc(N5CCOCC5)nc4nc3N3CC[C@@H](O)C3)co2)ccn1`: the GI50 with HCC-2998 colon is 55 µM; in the assay with HL-60(TB) leukemia it was 35.2 µM; in the assay on HS 578T breast, 22.2 µM; with KM12 colon, 3.46 µM; in the assay with MDA-MB-435, 40.7 µM; with NCI-H23 lung, 28.1 µM. Also, the GI50 is greater than 100 µM in the assay on OVCAR-5 ovarian, 25.8 µM in the assay with RPMI-8226 leukemia, 17.9 µM in the assay on RXF 393 renal and 23 µM in the assay with SK-MEL-2 melanoma. Besides, the TGI in the assay on HCC-2998 colon, in the assay on HL-60(TB) leukemia, in the assay on HS 578T breast, in the assay on KM12 colon, in the assay on MDA-MB-435 and in the assay on NCI-H23 lung was greater than 100 µM throughout. The TGI with OVCAR-5 ovarian was greater than 100 µM; in the assay with RPMI-8226 leukemia it was greater than 100 µM; with RXF 393 renal, greater than 100 µM; in the assay with SK-MEL-2 melanoma, 99.8 µM.

For `COc1cc(/C=N\NC(=O)CN2CCN(c3cc4c(cc3F)c(=O)c(C(=O)N/N=C/c3cc(OC)c(OC)c(OC)c3)cn4C3CC3)CC2)cc(OC)c1OC`, the GI50 was 0.178 µM in the assay on HCC-2998 colon; 0.32 µM in the assay on HL-60(TB) leukemia; 0.308 µM with HS 578T breast; 0.237 µM in the assay with MDA-MB-435; 0.237 µM in the assay with NCI-H23 lung; 0.489 µM in the assay with OVCAR-5 ovarian. Also, the GI50 with RPMI-8226 leukemia is 0.299 µM; with RXF 393 renal, 1.63 µM; in the assay with SK-MEL-2 melanoma it was 0.204 µM. For the same molecule, the TGI was 0.33 µM with HCC-2998 colon; greater than 31.7 µM in the assay on HL-60(TB) leukemia; 0.559 µM in the assay on MDA-MB-435; 0.605 µM in the assay on NCI-H23 lung; greater than 62.4 µM with OVCAR-5 ovarian; 30.4 µM in the assay with RXF 393 renal. The TGI in the assay with SK-MEL-2 melanoma stood at 0.513 µM.

Regarding `C=CC(=O)Nc1cc(Nc2ncc(C(=O)OC(C)C)c(-c3cn(C)c4ccccc34)n2)c(OC)cc1N(C)CCN(C)C`, the GI50 is 2.3 µM in the assay on HCC-2998 colon; 1.47 µM in the assay with HL-60(TB) leukemia; 6.43 µM with HS 578T breast; 5.85 µM in the assay on KM12 colon; 3 µM in the assay on MDA-MB-435; 9.02 µM in the assay on NCI-H23 lung. Moreover, the GI50 with OVCAR-5 ovarian is 2.72 µM; with RPMI-8226 leukemia, 2.86 µM; with RXF 393 renal, 1.86 µM; in the assay with SK-MEL-2 melanoma it was 4.3 µM. The TGI in the assay with HCC-2998 colon amounted to 7.75 µM; in the assay on HL-60(TB) leukemia, 3.7 µM; with HS 578T breast it was 21.5 µM; in the assay on KM12 colon, 13.9 µM; in the assay with MDA-MB-435, 7.6 µM; with NCI-H23 lung, 25.3 µM. The TGI in the assay on OVCAR-5 ovarian was found to be 18.1 µM; in the assay on RPMI-8226 leukemia, 14.6 µM; in the assay on RXF 393 renal it was 6.62 µM; in the assay with SK-MEL-2 melanoma, 11 µM.

On to `COc1cnc2c(c1)C(=O)c1c-2n(CCCN2CCOCC2)c(=O)c2cc(F)ccc12`, for which the GI50 was 2.75 µM in the assay with HCC-2998 colon; 0.373 µM with HL-60(TB) leukemia; 1.5 µM in the assay on HS 578T breast; 0.316 µM in the assay on KM12 colon; 0.454 µM with MDA-MB-435; 0.284 µM with NCI-H23 lung. For the same molecule, the values for the GI50 in the assay with RPMI-8226 leukemia, in the assay with RXF 393 renal and with SK-MEL-2 melanoma were 0.135 µM, 0.226 µM and 1.67 µM, respectively. Also, the TGI with HCC-2998 colon is greater than 100 µM; in the assay with HL-60(TB) leukemia, 2.85 µM; in the assay on HS 578T breast it was 23.3 µM; in the assay on KM12 colon, greater than 100 µM; in the assay on MDA-MB-435 it was greater than 100 µM; in the assay with NCI-H23 lung, 1.84 µM. The values for the TGI in the assay on RPMI-8226 leukemia, in the assay with RXF 393 renal and in the assay on SK-MEL-2 melanoma were 0.804 µM, 0.913 µM and 5.18 µM, respectively.

Take `Cc1nc2sccn2c1-c1csc(Nc2ccccc2Cl)n1`: the GI50 with HCC-2998 colon is 6.25 µM; in the assay with HL-60(TB) leukemia, 3 µM; in the assay on HS 578T breast it was 6.92 µM; with KM12 colon, 2.61 µM; in the assay with MDA-MB-435, 0.69 µM; with NCI-H23 lung, 2.28 µM. Further, the GI50 was 9.58 µM in the assay on OVCAR-5 ovarian, 1.93 µM with RPMI-8226 leukemia, 1.9 µM in the assay with RXF 393 renal and 3.83 µM in the assay on SK-MEL-2 melanoma. For the same molecule, the TGI was 45.3 µM in the assay on HCC-2998 colon; 29.2 µM in the assay with HL-60(TB) leukemia; greater than 100 µM in the assay with HS 578T breast; 24.5 µM in the assay on KM12 colon; 8.61 µM in the assay with MDA-MB-435; 35.4 µM in the assay on NCI-H23 lung. The TGI in the assay with OVCAR-5 ovarian worked out at 75.1 µM; in the assay on RPMI-8226 leukemia it was 19.1 µM; in the assay with RXF 393 renal, 7.09 µM; in the assay with SK-MEL-2 melanoma, 17.9 µM.

With `COc1cc2c(c3oc4c(O)cccc4c(=O)c13)CC(C(C)(O)CO)O2` (centres undefined), the TGI in the assay on HCC-2998 colon, in the assay on HL-60(TB) leukemia, in the assay with HS 578T breast, in the assay on MDA-MB-435, with NCI-H23 lung and in the assay on OVCAR-5 ovarian was greater than 100 µM in each case. Also, the TGI in the assay on RPMI-8226 leukemia was greater than 100 µM; in the assay with RXF 393 renal, 79.8 µM; with SK-MEL-2 melanoma, greater than 100 µM.

The values above are taken from PubChem BioAssay (NCI).
